Structures can show the parent of a compound that is named as a salt.
Assays:
β2AR-βarr2 [1] = molecular target: T1, β2AR-βarr2 (Homo sapiens, UniProt P07550+P32121); experiment: Saturation binding of [3H] DHA, membranes of t β2AR-βarr2 HEK 293 cells
β2AR = β2AR (Homo sapiens, UniProt P07550); type: binding
β2AR-Gαs = β2AR-Gαs (Homo sapiens, UniProt P07550); experiment: Saturation binding of [3H] DHA, membranes of t β2AR-Gαs HEK 293 cells
β2AR-βarr2 [2] = molecular target: T1, β2AR-βarr2; experiment: ERK1/2 phosphorylation; type: cell-based; conditions: t β2AR-βarr2 HEK 293; PTX 100ng/ml overnight

β2AR, sequence (P07550 whole entry): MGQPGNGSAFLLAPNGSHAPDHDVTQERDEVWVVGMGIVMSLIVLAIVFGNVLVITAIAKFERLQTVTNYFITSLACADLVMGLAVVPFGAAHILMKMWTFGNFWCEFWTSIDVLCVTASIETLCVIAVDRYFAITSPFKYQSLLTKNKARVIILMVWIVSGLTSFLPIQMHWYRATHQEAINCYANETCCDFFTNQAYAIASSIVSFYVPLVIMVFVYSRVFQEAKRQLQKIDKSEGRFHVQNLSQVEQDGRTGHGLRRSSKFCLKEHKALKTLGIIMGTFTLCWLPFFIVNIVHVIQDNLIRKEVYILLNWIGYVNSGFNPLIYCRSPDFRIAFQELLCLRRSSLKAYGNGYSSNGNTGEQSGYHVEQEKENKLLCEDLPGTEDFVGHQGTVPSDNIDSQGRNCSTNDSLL

Row | Compound | Kd (β2AR-βarr2 [1]) | Kd (β2AR) | Kd (β2AR-Gαs) | effect on constitutive ERK1/2 phosphorylation (β2AR-βarr2 [2])
1 | CCCc1ccccc1OC[C@@H](O)CNC(C)C [[3H] dihydroalprenolol, Dihydroalprenolol hydrochloride, levo‐[ring, propyl‐^3H(N)]‐] | 0.233 ± 0.022 nM | 0.148 ± 0.028 nM | 0.213 ± 0.049 nM | –
2 | pertussis toxin | – | – | – | no effect

— PMC9721090 (FASEB BioAdvances, 2022)
